# Experimental data reported in patent publication US11021445B2, “Carboxylic acid derivative as AT2R receptor antagonist” (SHANDONG DANHONG PHARMACEUTICAL CO., LTD., priority 2017, dated 2021).
# Columns and labels:
# [1] = Two-way permeability study in Caco-2 cells; format: in vitro ADME; settings: human; for efflux ratio at 120 min: pH 7.4; for Papp A→B at 120 min: pH 7.4, A-B direction; for Papp B→A at 120 min: pH 7.4, B-A direction
# Protocol: The two-way permeability of the to-be-tested compound in Caco-2 cells was measured, and whether the to-be-tested compound was transported by efflux or not was tested.
# The compound is dissolved in dimethyl sulfoxide (DMSO) or other suitable solvent to prepare a stock solution of the appropriate concentration.
# A suitable internal standard (IS) is dissolved in acetonitrile (ACN) or other organic solvent to be used as a stop solution. The specific information will be described in the research report.
# Nadolol, metoprolol, digoxin, estrone 3-sulfate potassium (E3S) and GF120918 were used as a hypotonic control compound, a hypertonic control compound, a P-glycoprotein (P-gp) substrate, a breast cancer resistance protein (BCRP) substrate, and an efflux transporter inhibitor in this study. Stock solutions of these compounds are prepared with DMSO and stored at ≤−30° C., and used within 6 months.
# In this study, HBSS (Hanks Balanced Salt Solution) containing 10 mM HEPES (2-[4-(2-hydroxyethyl)-1-piperazine]ethanesulfonic acid) was used as a transport buffer (pH 7.40*0.05).
# Caco-2 cells were cultured in an MEM medium (Minimum Essential Media) under the conditions of 37±1° C., 5% CO2 and saturated humidity. The cells were then seeded in a Corning Transwell-96 well plate at a density of 1×10^5 cells/cm^2, and then the cells were placed in a carbon dioxide incubator for culture for 21-28 days for transport experiments. The medium was changed once every 5-6 days during culture.
# Compounds were administered at concentrations of 2, 10 and 100 μM and were administered in both directions (A-B and B-A directions) with or without 10 μM GF120918, and there are three parallels for each administration concentration. Digoxin and E3S were tested at the concentration of 10 μM and 5 μM, respectively, and administered bidirectionally with or without 10 μM GF120918. The test concentrations of nadolol and metoprolol were 2 μM, and nadolol and metoprolol were administered unidirectionally (the A-B direction) without 10 μM GF120918. The three control compounds were also made in three parallels.
# The administration solution, receiving solution and transport buffer were pre-incubated for 30 minutes at 37° C. The cell layer was rinsed twice with the transport buffer. The administration solution and the receiving solution were separately added to the corresponding cell plate wells (75 μL and 250 μL, respectively, for each of the top and base end wells). After sampling, the cell plates were incubated for 120 minutes in an incubator at 37±1° C., 5% CO2 and saturated humidity.
# After all the compounds were subjected to vortex oscillation, the compounds after vortex oscillation were centrifuged at 3220×g, and 20° C. for 20 minutes, the appropriate volume of the supernatant was transferred to a sample analysis plate, and after the plate was sealed, the compounds were stored at 2-8° C. if the compounds were not immediately analyzed. The analysis was carried out by the method of LC/MS/MS, and the specific compound treatment method is shown in the research report.
# The Lucifer Yellow Rejection Assay was used to test the integrity of Caco-2 cells. Six cell wells were randomly selected from each cell plate, and 100 μM Lucifer Yellow was added respectively. The Lucifer Yellow Rejection Assay and the transport experiment were performed simultaneously. After 120 minutes of incubation, a Lucifer Yellow sample was taken and the relative fluorescence unit (RFU) of the Lucifer Yellow in the sample was detected at a 425/528 nm (excitation/emission) spectrum.
# The concentrations of the to-be-tested compound and the control compounds nadolol, metoprolol, digoxin and E3S in the samples were determined by liquid chromatography-tandem mass spectrometry (LC/MS/MS). The retention time of the analyte and internal standard, chromatogram acquisition and chromatogram integration were processed by using the software Analyst (AB Sciex, Framingham, Mass., USA).
# [2] = Plasma protein binding rate (PPB) test, equilibrium dialysis; format: in vitro ADME; settings: human, 37°C
# Protocol: In vitro protein binding rates of 0.2 μM, 2 μM, 10 μM of test compounds with Sprague-Dawley rats, beagle dogs, human plasma were determined by equilibrium dialysis.
# The experiment will use a 96-well equilibrium dialysis plate (HTDialysis device) to determine the plasma protein binding rate of the to-be-tested compound and the control compounds.
# Prior to the start of the experiment, the dialysis membrane was pretreated according to the instructions for use and the dialysis unit was assembled as required.
# Blank plasma was taken from CD-1 mice, Sprague-Dawley rats, Beagle dogs, cynomolgus monkeys and humans (an anticoagulant is EDTA-K2, which is a commercial product purchased, or is collected and prepared by the Drug Evaluation Department of Wuxi AppTech, and is stored in a refrigerator below −60° C. before use). A certain volume of the to-be-tested compound or the control compound working solution was added to prepare plasma samples of the compound to be tested at a concentration of 0.2, 2, 10 μM and plasma samples of the control compound at a concentration of 2 μM (n=1). The organic phase content was ≤1%. First, a certain volume of a plasma sample containing the to-be-tested compound and the control compound was taken out into the sample receiving plate as a sample at zero time (T0 sample, n=3); secondly, a plasma sample containing the to-be-tested compound and the control compound was added to one side of the dialysis membrane (plasma end, n=3), and a certain volume of dialysis buffer (buffer end, n=3) was added to the other side of the dialysis membrane; then the dialysis plate was placed in a humidified incubator with 5% CO2 for incubation for 4 hours at 37±1° C.
# After the incubation, a certain volume of the dialyzed buffer sample (F sample) and the dialyzed plasma sample (T sample) were transferred to the sample receiving plate, and all samples were subjected to protein precipitation for LC/MS/MS analysis. And the dissociation rate of the compound (% Unbound) was calculated by the following formula: % Unbound=100*[F]/[T], % Bound=100−% Unbound. Wherein, % Unbound is the dissociation rate of the compound; % Bound is the binding rate of the compound; [F] is the concentration of the compound at the buffer end of the dialysis plate; [T] is the concentration of the compound at the plasma end of the dialysis plate; and the experimental results are shown in Table 7.
Structure (SMILES),efflux ratio at 120 min [1],Papp A→B at 120 min [1],Papp B→A at 120 min [1],fraction unbound at 4 h [2]
COc1ccc2c(c1OCc1ccccc1)C[C@@H](C(=O)O)N(C(=O)[C@@H](OC1CC(F)(F)C1)c1ccccc1)C2 [Compound 51],,,,0.007
COc1ccc2c(c1OCc1ccccc1)C[C@@H](C(=O)O)N(C(=O)[C@@H](O[C@H]1CC[C@@H](O)CC1)c1ccccc1)C2 [Compound 63],,,,0.016
O=C(O)[C@@H]1Cc2c(ccc(Cl)c2OCc2ccccc2)CN1C(=O)[C@@H](OC1CCCC1)c1ccccc1 [Compound 107],13.1,0.48 ×10⁻⁶ cm/s,6.24 ×10⁻⁶ cm/s,
"COc1ccc2c(c1OCc1ccccc1)C[C@@H](C(=O)O)N(C(=O)C(c1ccccc1)c1ccccc1)C2 [EMA-401, reference compound]",,0.11 ×10⁻⁶ cm/s,6.4 ×10⁻⁶ cm/s,0.002

# Further lines, results first:
efflux ratio at 120 min [1],Papp A→B at 120 min [1],Papp B→A at 120 min [1],fraction unbound at 4 h [2],Structure (SMILES)
32.5,0.27 ×10⁻⁶ cm/s,8.68 ×10⁻⁶ cm/s,0.004,COc1ccc2c(c1OCc1ccccc1)C[C@@H](C(=O)O)N(C(=O)[C@@H](OC1CCCC1)c1ccccc1)C2 [Compound 37]
26.3,0.67 ×10⁻⁶ cm/s,17.7 ×10⁻⁶ cm/s,0.005,COc1ccc2c(c1OCc1ccccc1)C[C@@H](C(=O)O)N(C(=O)[C@@H](OC1(C)CCCC1)c1ccccc1)C2 [Compound 57]
